Laboratory results: patent publication US20110230430A1, “SAPONIN EXTRACT FROM SAPONARIA SPP. AND USES THEREOF” (NATIONAL RESEARCH COUNCIL OF CANADA, priority 2008, published 2011)

Legend:
Type in all cases: cell-based, human
MDA-MB-231 cells = assay: APO LOGIX Carboxyfluorescein Caspase 9 Detection Kit in MDA-MB-231 cells
Description: (§1) In a still further apoptotic assay, apoptosis can be measured by the APO LOGIX™ Carboxyfluorescein Caspase 9 Detection Kit. The APO LOGIX™ Carboxyfluorescein Caspase 9 Detection Kit uses a cell permeable carboxyfluorescein labeled caspase inhibitor, which binds covalently to active caspases 9. Caspase 9 is involved in initiating apoptosis through the mitochondrial pathway (Budihardjo I., et al. 1999). Cells that contain bound inhibitor are detected by an increase in fluorescence when samples are analyzed by flow cytometry.
The MDA-MB-231 cell line (ATCC #HTB-26) was derived from the pleural effusion of a patient with a breast adenocarcinoma (Cailleau et al., 1974). The cells were maintained in RPMI 1640 (Gibco) supplemented with 10% fetal bovine serum (Camera), 100 U/mL penicillin, 100 μg/mL streptomycin and 0.25 μg/mL amphotericin B. Cultures were maintained in medium at 37° C. with 5% CO2 and 100% relative humidity.
MDA-MB-231 cells were treated with PC1448 and assayed for apoptosis as previously described for PC-3 cells.

PC-3 cells = assay: APO LOGIX Carboxyfluorescein Caspase 9 Detection Kit in PC-3 cells
Description: as §1
PC-3 cells (ATCC #CRL-1435) were derived from a prostate adenocarcinoma (Kaighn et al., 1979). They were maintained in RPMI 1640 medium (Gibco) supplemented with 10% fetal bovine serum (Cansera), 100 U/mL penicillin, and 100 μg/mL streptomycin and 0.25 μg/mL amphotericin B. Cultures were maintained in medium at 37° C. with 5% CO2 and 100% relative humidity.
PC-3 cells were seeded in tissue culture flasks with regular growth medium and maintained under normal conditions. After cells had adhered, the tissue culture medium was replaced with medium containing PC1448 dissolved in DMSO with the final concentration of DMSO not exceeding 0.05%. For each assay, a flask of untreated cells was grown in media containing the same amount of DMSO as in the PC1448 treated samples. Following incubation under normal growth conditions for the specified time, cells were washed once with cold phosphate-buffered saline (PBS) (137 mM NaCl, 2.7 mM KCl, 4.3 mM Na2HPO4.7H2O, 1.4 mM KH2PO4) and harvested as previously described. Assays were carried out according to instructions given in kits. All Flow Cytometry was performed using a Coulter Epics XL (Beckman).

HT-29 cancer cells = assay: Dual Sensor: MitoCasp Assay in HT-29 colon cancer cells; conditions: HT-29 cells, 2.5 μM, 5.0 μM and 10 μM, 23 hours
Description: Techniques to assay enzymatic and signaling processes involved in apoptosis have been developed as standard protocols. One example of an early step in apoptosis, is the release of cytochrome C from mitochondria and the activation of caspase-3. Induction of the caspases (a series of cytosolic proteases) is one of the most consistently observed features of apoptosis. Caspases are a family of proteolytic enzymes that transmit the apoptotic signal using a proteolytic cascade. […] Caspases 3 and 7 are effector caspases, central to the caspase cascade pathways. In particular, caspase-3 plays a central role in the process. When caspases are activated, they cleave target proteins; one of the most important of these is poly-(ADP-ribose) polymerase (PARP), which is a protein located in the nucleus. Therefore, assays detecting release of cytochrome C, detecting caspase-3 activity and detecting PARP degradation are effective determinants of apoptosis. The loss of mitochondrial membrane potential is known to occur during apoptosis. […] Collapse of the mitochondrial membrane potential during apoptosis prevents the dye from accumulating in the mitochondria resulting in a decrease in fluorescent intensity that can be detected with flow cytometry. […] In this assay, caspase 3/7 activity is detected using a cell permeable carboxyfluorescein labeled caspase inhibitor, which binds covalently to active caspases 3 and 7. Cells that contain bound inhibitor are detected by an increase in fluorescence when samples are analyzed by flow cytometry.
Following PC1448 treatment, adherent and non-adherent cells were harvested and washed with cold PBS. […] Samples were analyzed by flow cytometry measuring the fluorescence emissions from 515 nm to 530 nm for caspase detection, and 574 nm to 600 nm for mitochondrial membrane potential detection. […]
HT-29 cancer cells were treated with 2.5 μM, 5.0 μM and 10 μM of PC1526 or PC1448 for 23 hours, or with 2.5 μM, 5.0 μM and 10 μM PC1422 for 24 hours and assessed using the Dual Sensor: MitoCasp™ Assay. […]

Segetoside H [PC1448]
Caspase 9 positive cells (MDA-MB-231 cells; 14 μM PC1448, 10 hr): 23.2%
Caspase 9 positive cells (MDA-MB-231 cells; 14 μM PC1448, 15 hr): 29.8%
Caspase 9 positive cells (MDA-MB-231 cells; 14 μM PC1448, 20 hr): 30.5%
Increase in cells with caspase 9 activity vs untreated (maximum effect) (MDA-MB-231 cells; 14 μM PC1448, 40 hours): 2.5 fold
Caspase 9 positive cells (MDA-MB-231 cells; 14 μM PC1448, 40 hr): 39.4%
Caspase 9 positive cells (PC-3 cells; 7 μM PC1448, 20 hr): 47.7%
Caspase 9 positive cells (PC-3 cells; 10 μM PC1448, 20 hr): 73.9%
Caspase 9 positive cells (PC-3 cells; 14 μM PC1448, 10 hr): 37.3%
Caspase 9 positive cells (PC-3 cells; 14 μM PC1448, 15 hr): 44.2%
Caspase 9 positive cells (PC-3 cells; 14 μM PC1448, 20 hr): 48.0%
Increase in cells with caspase 9 activity vs untreated (PC-3 cells; 14 μM PC1448, 20 hr (concentration range)): six fold
Caspase 9 positive cells (PC-3 cells; 14 μM PC1448, 20 hr (concentration series)): 75.3%
Increase in cells showing caspase 9 activity vs untreated (PC-3 cells; 14 μM PC1448, 20 hr (time course)): six fold
Caspase 9 positive cells (PC-3 cells; 14 μM PC1448, 40 hr): 29.4%
Caspase 9 positive cells (PC-3 cells; 17 μM PC1448, 20 hr): 65.6%
Caspase 3/7 activity compared to untreated cells / induction of apoptosis (in words, FIG. 5) (HT-29 cancer cells): increase in caspase 3/7 activity
